Reference: ChEMBL document CHEMBL1142769, “A preliminary study of the metabolic stability of a series of benzoxazinone derivatives as potent neuropeptide Y5 antagonists” (Bioorg Med Chem Lett, 2005)

How the values were obtained:
[1] = Inhibitory concentration required for Metabolic stability after 1 hour at an incubation concentration of 10 uM; type: ADME
[2] = Half life period after 1 hour in Rat liver microsomes at 37 degree C an incubation concentration of 10 uM
[3] = Half life period after 1 hour in human liver microsomes at 37 degree C an incubation concentration of 10 uM
[4] = Metabolic stability after 1 hour in Rat liver microsomes at 37 degree C an incubation concentration of 10 uM
[5] = Metabolic stability after 1 hour in human liver microsomes at 37 degree C an incubation concentration of 10 uM

Row | Compound | IC50 [1] [µM] | half-life at 1 h, 10 µM ([2]; liver microsomes) [min] | half-life at 1 h, 10 µM ([3]; liver microsomes) [min] | half-life at 1 h, 10 µM ([2]; microsomes) [min] | remaining at 1 h, 10 µM [4] [%] | remaining at 1 h, 10 µM [5] [%] | half-life at 1 h, 10 µM ([3]; microsomes) [min]
1 | O=C(CN1CCC(N2C(=O)OCc3c(F)cccc32)CC1)Nc1ccc2[nH]c3ccccc3c2c1 | 0.461 | 19.3 | 95 | – | – | – | –
2 | O=C(CN1CCC(N2C(=O)OCc3ccc(Cl)cc32)CC1)Nc1ccc2sc3ccccc3c2c1 | 0.135 | – | – | 32.7 | 24 | 19.6 | 28.4
